Measured values taken from ChEMBL document CHEMBL6109155, “Discovery of Phenylacylpiperidine as Novel sEH Inhibitors through Scaffold Hopping of Natural Stilbene” (J Med Chem, 2025).
Calls of active or inactive are those of the source. No cut-off for these calls is given here.

Legend:
[1] = target: T1, Bifunctional epoxide hydrolase 2 (Mus musculus, UniProt P34914); experiment: biochemical
T1 sequence (P34914 whole entry): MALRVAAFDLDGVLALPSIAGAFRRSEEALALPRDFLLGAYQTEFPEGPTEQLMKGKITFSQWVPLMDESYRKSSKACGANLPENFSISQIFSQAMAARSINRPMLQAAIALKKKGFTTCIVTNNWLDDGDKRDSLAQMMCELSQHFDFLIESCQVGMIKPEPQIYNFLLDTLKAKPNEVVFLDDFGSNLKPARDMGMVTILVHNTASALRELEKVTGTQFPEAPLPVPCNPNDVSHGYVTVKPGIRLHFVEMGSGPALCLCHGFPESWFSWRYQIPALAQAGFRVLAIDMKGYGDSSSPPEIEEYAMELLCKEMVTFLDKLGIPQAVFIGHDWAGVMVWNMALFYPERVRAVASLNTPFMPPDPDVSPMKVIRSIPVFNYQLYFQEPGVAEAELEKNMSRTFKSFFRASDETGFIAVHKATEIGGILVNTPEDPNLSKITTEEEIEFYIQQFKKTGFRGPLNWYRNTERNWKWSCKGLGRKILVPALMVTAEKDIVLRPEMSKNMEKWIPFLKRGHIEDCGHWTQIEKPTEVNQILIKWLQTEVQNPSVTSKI
Description: Inhibition of C57BL/6J mouse brain sEH using 14,15-EET as substrate preincubated for 15 mins followed by substrate addition by HPLC-MS analysis

Mus musculus [2] = experiment: Anti-inflammatory activity in BALB/c mouse model of carrageenan-induced paw edema assessed as inhibition of paw swelling at 20 mg/kg, po measured for 0.5 to 6 hrs relative to control; type: functional; conditions: time 0.5-6 hrs
Mus musculus [3] = experiment: Anti-inflammatory activity in BALB/c mouse model of carrageenan-induced paw edema assessed as inhibition of paw swelling at 20 mg/kg, po measured for 0.5 hrs relative to control; type: functional
Mus musculus [4] = experiment: Anti-inflammatory activity in BALB/c mouse model of carrageenan-induced paw edema at 20 mg/kg, po measured for 0.5 to 6 hrs; type: functional, organism-based; conditions: time 0.5-6 hrs
[5] = Cmax in kidney of C57BL/6J mouse at 20 mg/kg, po measured for 24 hrs; type: ADME, organism-based
[6] = Ratio of AUC (0 to 24 hrs) in liver to plasma in C57BL/6J mouse at 20 mg/kg, po measured for 24 hrs; type: ADME, organism-based; conditions: liver and plasma, read-out: Ratio AUC
[7] = AUC (0 to 24 hrs) in brain of C57BL/6J mouse at 20 mg/kg, po measured for 24 hrs; type: ADME, organism-based
[8] = AUC (0 to 24 hrs) in liver of C57BL/6J mouse at 20 mg/kg, po measured for 24 hrs; type: ADME, organism-based
[9] = Cmax in brain of C57BL/6J mouse at 20 mg/kg, po measured for 24 hrs; type: ADME, organism-based
[10] = Ratio of Cmax in brain to plasma in C57BL/6J mouse at 20 mg/kg, po measured for 24 hrs; type: ADME, organism-based; conditions: brain and plasma
[11] = Ratio of Cmax in kidney to plasma in C57BL/6J mouse at 20 mg/kg, po measured for 24 hrs; type: ADME, organism-based; conditions: kidney and plasma
Mus musculus [12] = experiment: Anti-inflammatory activity in BALB/c mouse model of carrageenan-induced paw edema assessed as inhibition of paw swelling at 20 mg/kg, po measured for 6 hrs relative to control; type: functional
[13] = Ratio of Cmax in liver to plasma in C57BL/6J mouse at 20 mg/kg, po measured for 24 hrs; type: ADME, organism-based; conditions: liver and plasma
Mus musculus [14] = experiment: Analgesic effect in BALB/c mouse model of acetic acid-induced writhing assessed as reduction in number of writhing episodes at 20 mg/kg, po pretreated for 1 hr followed by acetic acid treatment and measured after 5 to 35 mins relative to control; type: functional; parameters: scale not given: the % may be the effect or the level left; conditions: time 65-95 min
[15] = Ratio of AUC (0 to 24 hrs) in kidney to plasma in C57BL/6J mouse at 20 mg/kg, po measured for 24 hrs; type: ADME, organism-based; conditions: kidney and plasma, read-out: Ratio AUC
[16] = Cmax in liver of C57BL/6J mouse at 20 mg/kg, po measured for 24 hrs; type: ADME, organism-based
[17] = AUC (0 to 24 hrs) in kidney of C57BL/6J mouse at 20 mg/kg, po measured for 24 hrs; type: ADME, organism-based
[18] = Cmax in plasma of C57BL/6J mouse at 20 mg/kg, po measured for 24 hrs; type: ADME, organism-based
[19] = AUC (0 to 24 hrs) in plasma of C57BL/6J mouse at 20 mg/kg, po measured for 24 hrs; type: ADME, organism-based
[20] = Ratio of AUC (0 to 24 hrs) in brain to plasma in C57BL/6J mouse at 20 mg/kg, po measured for 24 hrs; type: ADME, organism-based; conditions: brain and plasma, read-out: Ratio AUC
Mus musculus [21] = experiment: Anti-inflammatory activity in BALB/c mouse model of carrageenan-induced paw edema assessed as inhibition of paw swelling at 20 mg/kg, po measured for 2 hrs relative to control; type: functional

Row | SMILES | IC50 [1] [nM] | further results
1 | CC(C)CNC(=O)NCCC/C=C/c1ccc2c(c1)OCO2 | 11.3 | 
2 | CCC(=O)N1CCC(CNC(=O)NC2CCN(C(=O)Cc3ccc4c(c3)OCO4)CC2)CC1 | 9.61 | 
3 | CCC(=O)N1CCC(CNC(=O)NC2CCN(C(=O)Cc3cccc(NC(=O)Cc4ccccn4)c3)CC2)CC1 | 20.3 | 
4 | CC(C)C(=O)NCCC/C=C/c1ccc2c(c1)OCO2 | 4950 | 
5 | CCC(=O)N1CCC(NC(=O)Nc2ccc(OC(F)(F)F)cc2)CC1 |  | inhibition in vivo at 20 mg/kg (Mus musculus [2]; Mus musculus, BALB/c): 28.8%
6 | O=C(NCc1ccc(OC(F)(F)F)cc1)NC1CCN(C(=O)Cc2ccc3c(c2)OCO3)CC1 | 0.85 | Imax (Mus musculus [3]): 36.3%; Activity (Mus musculus [4]): Active
7 | COc1cc(CC(=O)N2CCC(NC(=O)NCC3CCOCC3)CC2)cc(OC)c1 | 18.5 | 
8 | CN(C)C(=O)N1CCC(NC(=O)Cc2ccc3c(c2)OCO3)CC1 | 6390 | 
9 | CC(C)CNC(=O)NCCNC(=O)Cc1ccc2c(c1)OCO2 | 4310 | 
10 | CC(C)CNC(=O)NCC1CCN(C(=O)Cc2ccc3c(c2)OCO3)CC1 | 211 | 
11 | CC(C)CNC(=O)NC1CCN(C(=O)Cc2ccc3c(c2)OCO3)CC1 | 25.3 | 
12 | CC(C)CNC(=O)NC1CCN(CCc2ccc3c(c2)OCO3)CC1 | 1330 | 
13 | O=C(Cc1ccccn1)Nc1cccc(CC(=O)N2CCC(NC(=O)NCc3ccc(OC(F)(F)F)cc3)CC2)c1 | 3.1 | 
14 | CCC(=O)N1CCC(CNC(=O)Nc2ccc3cc(-c4cc(OC)cc(OC)c4)ncc3c2)CC1 | 5.24 | 
15 | O=C(NCc1ccc(OC(F)(F)F)cc1)NC1CCN(C(=O)Cc2cccc(OC(F)(F)F)c2)CC1 | 0.91 | Imax (Mus musculus [3]): 39.7%; Activity (Mus musculus [4]): Active
16 | O=C(NCc1ccc(OC(F)(F)F)cc1)NC1CCN(C(=O)Cc2ccc(OC(F)(F)F)cc2)CC1 | 2.24 | 
17 | CN(C)C(=O)NC1CCN(C(=O)Cc2ccc3c(c2)OCO3)CC1 | 64900 | 
18 | CC(C)CNC(=O)NCCCNC(=O)Cc1ccc2c(c1)OCO2 | 4500 | 
19 | CCC(=O)N1CCC(CNC(=O)NC2CCN(C(=O)Cc3cccc(OC)c3)CC2)CC1 | 6.13 | 
20 | CN(C)C(=O)NCCC/C=C/c1ccc2c(c1)OCO2 | 260 | 
21 | COc1cc(OC)cc(C2Cc3ccc(NC(=O)NCc4ccc(OC(F)(F)F)cc4)cc3CN2)c1 (stereo not drawn) | 4.34 | 
22 | O=C(Cc1ccc2c(c1)OCO2)NCCCCNC(=O)NCC1CCOCC1 | 1270 | 
23 | CCC(=O)N1CCC(CNc2c(NC3CCN(C(=O)Cc4cc(OC)cc(OC)c4)CC3)c(=O)c2=O)CC1 | 164000 | 

Row | SMILES | IC50 [1] [nM] | further results
24 | CCC(=O)N1CCC(NC(=O)NC2CCN(C(=O)Cc3cc(OC)cc(OC)c3)CC2)CC1 | 163 | 
25 | COc1cc(OC)cc(-c2cc3ccc(NC(=O)NCc4ccc(OC(F)(F)F)cc4)cc3cn2)c1 | 1.95 | Imax (Mus musculus [2]): 12.7%
26 | CCC(=O)N1CCC(CNC(=O)NC2CCN(C(=O)Cc3cc(OC)cc(OC)c3)CC2)CC1 | 10.8 | Cmax [5]: 4010 ng/g; Kp at 24 h [6]: 237; AUC(0-t) at 24 h [7]: 173 ng·h/mL; AUC(0-t) at 24 h [8]: 76700 ng·h/mL; inhibition in vivo at 20 mg/kg (Mus musculus [3]; Mus musculus, BALB/c): 38.6%; Cmax [9]: 44.9 ng/g; Kp at 24 h [10]: 0.59; Kp at 24 h [11]: 52.3; inhibition in vivo at 20 mg/kg (Mus musculus [12]): 37.6%; Kp at 24 h [13]: 77.5; Activity (Mus musculus [14]): 60%; Kp at 24 h [15]: 135; Cmax [16]: 5940 ng/g; AUC(0-t) at 24 h [17]: 43400 ng·h/mL; Cmax [18]: 76.7 ng/mL; AUC(0-t) at 24 h [19]: 323 ng·h/mL; Kp at 24 h [20]: 0.53; inhibition in vivo at 20 mg/kg (Mus musculus [21]): 50.8%
27 | CC(C)CNC(=O)NCCCC#Cc1ccc2c(c1)OCO2 | 21.9 | 
28 | CN(C)C(=O)NCCCC/C=C/c1ccc2c(c1)OCO2 | 6440 | 
29 | CCC(=O)N1CCC(CNC(=O)NC2CCN(C(=O)Cc3cccc(OC(F)(F)F)c3)CC2)CC1 | 18.8 | 
30 | COc1ccc(CC(=O)N2CCC(NC(=O)NCc3ccc(OC(F)(F)F)cc3)CC2)cc1OC | 4.23 | 
31 | CCC(=O)NCCCCNC(=O)NC1CCN(C(=O)Cc2cc(OC)cc(OC)c2)CC1 | 1630 | 
32 | CS(=O)(=O)c1ccc(CC(=O)N2CCC(NC(=O)NCc3ccc(OC(F)(F)F)cc3)CC2)cc1 | 3.77 | Imax (Mus musculus [3]): 35.9%
33 | COc1cc(CCC(=O)N2CCC(NC(=O)NCc3ccc(OC(F)(F)F)cc3)CC2)cc(OC)c1 | 0.73 | Imax (Mus musculus [3]): 28.3%; Activity (Mus musculus [4]): Active
34 | COc1cc(CC(=O)N2CCC(NC(=O)NCCN(C)C)CC2)cc(OC)c1 | 15700 | 
35 | CC(C)CNC(=O)NCCCCCNC(=O)Cc1ccc2c(c1)OCO2 | 261 | 
36 | CC(C)CNC(=O)N1CCC(NC(=O)Cc2ccc3c(c2)OCO3)CC1 | 3470 | 
37 | CCC(=O)N1CCC(CNC(=O)Nc2ccc3c(c2)CNC(c2cc(OC)cc(OC)c2)C3)CC1 (stereo not drawn) | 39.7 | 
38 | COc1cc(OC)cc(C(=O)N2CCC(NC(=O)NCc3ccc(OC(F)(F)F)cc3)CC2)c1 | 2.25 | 
39 | COc1cc(CC(=O)N2CCC(NC(=O)NCC(C)C)CC2)cc(OC)c1 | 10.9 | 
40 | COc1cccc(CC(=O)N2CCC(NC(=O)NCc3ccc(OC(F)(F)F)cc3)CC2)c1 | 0.54 | Activity (Mus musculus [4]): Active
41 | COc1cc(CC(=O)N2CCC(NC(=O)NCc3ccc(C#N)cc3)CC2)cc(OC)c1 | 14.6 | 
42 | CC(C)CNC(=O)NCCCCNC(=O)Cc1ccc2c(c1)OCO2 | 1.88 | 
43 | COc1cc(CC(=O)N2CCC(NC(=O)Nc3ccc(OC(F)(F)F)cc3)CC2)cc(OC)c1 | 15.7 | 
44 | COc1ccc(CC(=O)N2CCC(NC(=O)NCC(C)C)CC2)cc1OC | 20.2 | 
45 | O=C(Cc1ccccn1)Nc1cccc(CC(=O)N2CCC(NC(=O)NCC3CCOCC3)CC2)c1 | 55.3 | 
46 | CCC(=O)N1CCC(CNC(=O)NC2CCN(C(=O)Cc3ccc(OC(F)(F)F)cc3)CC2)CC1 | 10.1 | 
